Earlier results as cited in patent US20210038669A1, “Composition(s) for Topically Treating Pain” (priority 2016, published 2021).

System: neuropathic pain conditions (postherpetic neuralgia, trigeminal, postsurgical or post-traumatic neuralgia)
Details: 5% patch, 5% cream, 5% gel, 8% spray; all but one study; third tier (very low quality) evidence

SMILES: CCN(CC)CC(=O)Nc1c(C)cccc1C [lidocaine, Lidocaine]
- pain relief versus placebo: better than placebo
